Reference: patent US20170326125A1, “MULTISUBSTITUTED AROMATIC COMPOUNDS AS INHIBITORS OF THROMBIN” (VERSEON CORPORATION, priority 2016, published 2017)

target: T1, Human thrombin (Homo sapiens, UniProt P00734); test: Inhibition of the protease activity of thrombin (chromogenic substrate S-2238); format: biochemical; settings: Table C; 3 nM thrombin, 125 μM S-2238, 10 min pre-incubation, RT
T1 construct: purchased Haematologic Technologies Inc

Row | SMILES | IC50
1 | O=C(CCc1ccccc1)n1nc(-c2cccnc2)nc1NCc1ccc(F)cc1 [Cmpd 315, 1-(5-[(4-fluorophenyl)methyl]amino-3-(pyridin-3-yl)-1H-1,2,4-triazol-1-yl)-3-phenylpropan-1-one] | < 100 nM
2 | CCCC(=O)n1nc(-c2cccnc2)nc1NCc1ccc(F)cc1 [Cmpd 316, 1-(5-[(4-fluorophenyl)methyl]amino-3-(pyridin-3-yl)-1H-1,2,4-triazol-1-yl)butan-1-one] | < 100 nM
3 | CC(=O)n1nc(-c2cccnc2)nc1NCc1ccc(F)cc1 [Cmpd 317, 1-(5-[(4-fluorophenyl)methyl]amino-3-(pyridin-3-yl)-1H-1,2,4-triazol-1-yl)ethan-1-one] | < 100 nM
4 | COc1ccc(CNc2nc(-c3cccnc3)nn2C(=O)C(C)C)cc1 [Cmpd 318, 1-(5-[(4-methoxyphenyl)methyl]amino-3-(pyridin-3-yl)-1H-1,2,4-triazol-1-yl)-2-methylpropan-1-one] | < 100 nM
5 | COc1ccc(CNc2nc(-c3cccnc3)nn2C(=O)Cc2ccccc2)cc1 [Cmpd 319, 1-(5-[(4-methoxyphenyl)methyl]amino-3-(pyridin-3-yl)-1H-1,2,4-triazol-1-yl)-2-phenylethan-1-one] | < 100 nM
6 | COc1ccc(CNc2nc(-c3cccnc3)nn2C(=O)CC(C)C)cc1 [Cmpd 320, 1-(5-[(4-methoxyphenyl)methyl]amino-3-(pyridin-3-yl)-1H-1,2,4-triazol-1-yl)-3-methylbutan-1-one] | < 100 nM
7 | CCCC(=O)n1nc(-c2cccnc2)nc1NCc1ccc(OC)cc1 [Cmpd 322, 1-(5-[(4-methoxyphenyl)methyl]amino-3-(pyridin-3-yl)-1H-1,2,4-triazol-1-yl)butan-1-one] | < 100 nM
8 | Nc1nc(-c2cccnc2)nn1S(=O)(=O)c1ccccc1 [Cmpd 326, 1-(benzenesulfonyl)-3-(pyridin-3-yl)-1H-1,2,4-triazol-5-amine] | > 1000 nM
9 | O=S(=O)(c1ccccc1)n1nc(-c2cccnc2)nc1NCc1cccs1 [Cmpd 327, 1-(benzenesulfonyl)-3-(pyridin-3-yl)-N-(thiophen-2-ylmethyl)-1H-1,2,4-triazol-5-amine] | > 1000 nM
10 | Nc1nc(C(=O)N2CCOCC2)nn1S(=O)(=O)c1ccccc1 [Cmpd 328, 1-(benzenesulfonyl)-3-[(morpholin-4-yl)carbonyl]-1H-1,2,4-triazol-5-amine] | > 1000 nM
11 | CCS(=O)(=O)n1nc(C(=O)N2CCOCC2)nc1N [Cmpd 329, 1-(ethanesulfonyl)-3-[(morpholin-4-yl)carbonyl]-1H-1,2,4-triazol-5-amine] | > 1000 nM
12 | CSc1nc(-c2ccco2)nn1C(=O)c1ccccc1Cl [Cmpd 330, 1-[(2-chlorophenyl)carbonyl]-3-(furan-2-yl)-5-(methylsulfanyl)-1H-1,2,4-triazole] | < 100 nM
13 | O=C(c1ccccc1Cl)n1nc(-c2ccco2)nc1NCc1ccc(F)cc1 [Cmpd 331, 1-[(2-chlorophenyl)carbonyl]-N-[(4-fluorophenyl)methyl]-3-(furan-2-yl)-1H-1,2,4-triazol-5-amine] | < 100 nM
14 | O=C(c1ccccc1Cl)n1nc(-c2cccnc2)nc1NCc1ccc(F)cc1 [Cmpd 332, 1-[(2-chlorophenyl)carbonyl]-N-[(4-fluorophenyl)methyl]-3-(pyridin-3-yl)-1H-1,2,4-triazol-5-amine] | < 100 nM
15 | COc1ccc(CNc2nc(-c3cccnc3)nn2C(=O)c2ccco2)cc1 [Cmpd 340, 1-[(furan-2-yl)carbonyl]-N-[(4-methoxyphenyl)methyl]-3-(pyridin-3-yl)-1H-1,2,4-triazol-5-amine] | 100 to 1000 nM
16 | CCC(=O)n1nc(-c2ccco2)nc1SC [Cmpd 341, 1-[3-(furan-2-yl)-5-(methylsulfanyl)-1H-1,2,4-triazol-1-yl]propan-1-one] | > 1000 nM
17 | CC(=O)n1nc(-c2cccnc2)nc1NCc1cccs1 [Cmpd 343, 1-[3-(pyridin-3-yl)-5-[(thiophen-2-ylmethyl)amino]-1H-1,2,4-triazol-1-yl]ethan-1-one] | < 100 nM
18 | CCC(=O)n1nc(-c2ccc(F)cc2)nc1NCc1ccccc1 [Cmpd 345, 1-[5-(benzylamino)-3-(4-fluorophenyl)-1H-1,2,4-triazol-1-yl]propan-1-one] | > 1000 nM
19 | O=C(Cc1ccccc1)n1nc(-c2ccco2)nc1NCc1ccccc1 [Cmpd 346, 1-[5-(benzylamino)-3-(furan-2-yl)-1H-1,2,4-triazol-1-yl]-2-phenylethan-1-one] | < 100 nM
20 | O=C(CCc1ccccc1)n1nc(-c2ccco2)nc1NCc1ccccc1 [Cmpd 347, 1-[5-(benzylamino)-3-(furan-2-yl)-1H-1,2,4-triazol-1-yl]-3-phenylpropan-1-one] | < 100 nM
21 | CC(C)C(=O)n1nc(-c2cccnc2)nc1NCc1ccccc1 [Cmpd 349, 1-[5-(benzylamino)-3-(pyridin-3-yl)-1H-1,2,4-triazol-1-yl]-2-methylpropan-1-one] | < 100 nM
22 | CC(C)CC(=O)n1nc(-c2cccnc2)nc1NCc1ccccc1 [Cmpd 350, 1-[5-(benzylamino)-3-(pyridin-3-yl)-1H-1,2,4-triazol-1-yl]-3-methylbutan-1-one] | < 100 nM
23 | CCC(=O)n1nc(-c2cccs2)nc1NCc1ccccc1 [Cmpd 352, 1-[5-(benzylamino)-3-(thiophen-2-yl)-1H-1,2,4-triazol-1-yl]propan-1-one] | < 100 nM
24 | CCC(=O)n1nc(-c2ccccc2)nc1NCc1ccccc1 [Cmpd 355, 1-[5-(benzylamino)-3-phenyl-1H-1,2,4-triazol-1-yl]propan-1-one] | 100 to 1000 nM
25 | COc1ccc(CNc2nc(-c3cccnc3)nn2C(=O)c2ccccc2)cc1 [Cmpd 357, 1-benzoyl-N-[(4-methoxyphenyl)methyl]-3-(pyridin-3-yl)-1H-1,2,4-triazol-5-amine] | 100 to 1000 nM
26 | O=C(c1ccccc1)n1nc(-c2ccco2)nc1NCc1ccccc1 [Cmpd 358, 1-benzoyl-N-benzyl-3-(furan-2-yl)-1H-1,2,4-triazol-5-amine] | < 100 nM
27 | CS(=O)(=O)n1nc(C(=O)N2CCOCC2)nc1N [Cmpd 360, 1-methanesulfonyl-3-[(morpholin-4-yl)carbonyl]-1H-1,2,4-triazol-5-amine] | > 1000 nM
28 | CC(C)C(=O)n1nc(-c2cccnc2)nc1NCc1ccco1 [Cmpd 361, 1-5-[(furan-2-ylmethyl)amino]-3-(pyridin-3-yl)-1H-1,2,4-triazol-1-yl-2-methylpropan-1-one] | < 100 nM
29 | CCCC(=O)n1nc(-c2cccnc2)nc1NCc1ccco1 [Cmpd 362, 1-5-[(furan-2-ylmethyl)amino]-3-(pyridin-3-yl)-1H-1,2,4-triazol-1-ylbutan-1-one] | < 100 nM

The next lines start with the values.

Row | IC50 | SMILES
30 | 100 to 1000 nM | COc1ccc(CNc2nc(-c3cccnc3)nn2C(=O)CCc2ccccc2)cc1 [Cmpd 321, 1-(5-[(4-methoxyphenyl)methyl]amino-3-(pyridin-3-yl)-1H-1,2,4-triazol-1-yl)-3-phenylpropan-1-one]
31 | 100 to 1000 nM | COc1ccc(CNc2nc(-c3cccnc3)nn2C(C)=O)cc1 [Cmpd 323, 1-(5-[(4-methoxyphenyl)methyl]amino-3-(pyridin-3-yl)-1H-1,2,4-triazol-1-yl)ethan-1-one]
32 | 100 to 1000 nM | CCC(=O)n1nc(-c2cccnc2)nc1NCc1ccc(OC)cc1 [Cmpd 324, 1-(5-[(4-methoxyphenyl)methyl]amino-3-(pyridin-3-yl)-1H-1,2,4-triazol-1-yl)propan-1-one]
33 | < 100 nM | CC(=O)n1nc(-c2cccnc2)nc1NCc1ccc(C)cc1 [Cmpd 325, 1-(5-[(4-methylphenyl)methyl]amino-3-(pyridin-3-yl)-1H-1,2,4-triazol-1-yl)ethan-1-one]
34 | > 1000 nM | COc1ccccc1C(=O)n1nc(-c2ccccc2)nc1N [Cmpd 334, 1-[(2-methoxyphenyl)carbonyl]-3-phenyl-1H-1,2,4-triazol-5-amine]
35 | > 1000 nM | O=S(=O)(c1ccc(Cl)cc1)n1nc(-c2cccnc2)nc1NCc1cccs1 [Cmpd 336, 1-[(4-chlorobenzene)sulfonyl]-3-(pyridin-3-yl)-N-(thiophen-2-ylmethyl)-1H-1,2,4-triazol-5-amine]
36 | > 1000 nM | Nc1nc(C(=O)N2CCOCC2)nn1S(=O)(=O)c1ccc(Cl)cc1 [Cmpd 337, 1-[(4-chlorobenzene)sulfonyl]-3-[(morpholin-4-yl)carbonyl]-1H-1,2,4-triazol-5-amine]
37 | < 100 nM | O=C(c1ccc(Cl)cc1)n1nc(-c2cccnc2)nc1NCc1ccc(F)cc1 [Cmpd 338, 1-[(4-chlorophenyl)carbonyl]-N-[(4-fluorophenyl)methyl]-3-(pyridin-3-yl)-1H-1,2,4-triazol-5-amine]
38 | 100 to 1000 nM | Cc1ccc(C(=O)n2nc(-c3cccnc3)nc2N)cc1 [Cmpd 339, 1-[(4-methylphenyl)carbonyl]-3-(pyridin-3-yl)-1H-1,2,4-triazol-5-amine]
39 | < 100 nM | CCCC(=O)n1nc(-c2cccnc2)nc1NCc1cccs1 [Cmpd 342, 1-[3-(pyridin-3-yl)-5-[(thiophen-2-ylmethyl)amino]-1H-1,2,4-triazol-1-yl]butan-1-one]
40 | < 100 nM | CCC(=O)n1nc(-c2ccco2)nc1NCc1ccccc1 [Cmpd 348, 1-[5-(benzylamino)-3-(furan-2-yl)-1H-1,2,4-triazol-1-yl]propan-1-one]
41 | < 100 nM | CCC(=O)n1nc(-c2cccnc2)nc1NCc1ccccc1 [Cmpd 351, 1-[5-(benzylamino)-3-(pyridin-3-yl)-1H-1,2,4-triazol-1-yl]propan-1-one]
42 | < 100 nM | O=C(Cc1ccccc1)n1nc(-c2ccccc2)nc1NCc1ccccc1 [Cmpd 353, 1-[5-(benzylamino)-3-phenyl-1H-1,2,4-triazol-1-yl]-2-phenylethan-1-one]
43 | > 1000 nM | O=C(CCc1ccccc1)n1nc(-c2ccccc2)nc1NCc1ccccc1 [Cmpd 354, 1-[5-(benzylamino)-3-phenyl-1H-1,2,4-triazol-1-yl]-3-phenylpropan-1-one]
44 | < 100 nM | O=C(c1ccccc1)n1nc(-c2cccnc2)nc1NCc1ccc(F)cc1 [Cmpd 356, 1-benzoyl-N-[(4-fluorophenyl)methyl]-3-(pyridin-3-yl)-1H-1,2,4-triazol-5-amine]
45 | < 100 nM | O=C(c1ccccc1)n1nc(-c2ccccc2)nc1NCc1ccccc1 [Cmpd 359, 1-benzoyl-N-benzyl-3-phenyl-1H-1,2,4-triazol-5-amine]
